Measured values published in patent US6548543B1, “Remedies or preventives containing cyclopentenone compounds as the active ingredient” (Takara Shuzo Co., Ltd., priority 1998, dated 2003).

How the values were obtained:
topoisomerase II = target: T1, topoisomerase II (Homo sapiens, UniProt P11388); experiment: Topoisomerase II inhibition, pBR322 DNA relaxation; type: biochemical; conditions: 37° C., 30 minutes
T1 construct: purchased TopoGEN
Procedure: (1) 2 μl of topoisomerase II (TopoGEN; 2 units/μl), 2 μl of 10-fold concentrated buffer [0.5 M Tris-HCl (pH 8.0), 1.2 M KCl, 0.1 M MgCl2, 2.5 mM adenosine triphosphate, 5 mM dithiothreitol], 2 μl of 0.1% bovine serum albumin (Takara Shuzo), 11 μl of distilled water and 2 μl of distilled water (control) or 2 μl of one of aqueous solutions of dipropionylcyclopentenone, diisobutyrylcyclopentenone, dibenzoylcyclopentenone, dihexanoylcyclopentenone, di-2-hexenoylcyclopentenone, dimethoxyacetylcyclopentenone, dimethylfumarylcyclopentenone or dimethylmaleylcyclopentenone at varying concentrations were mixed together. 1 μl of 0.25 μg/μl pBR322 DNA (Takara Shuzo) was added thereto. The resulting mixture was reacted at 37° C. After reacting for 30 minutes, 2 μl of an aqueous solution containing 1% sodium dodecyl sulfate, 50% glycerol and 0.02% Bromophenol Blue was added thereto to stop the reaction.
20 μl of the reaction mixture was applied to 1% agarose gel prepared using agarose L03 (Takara Shuzo) and TAE buffer [40 mM Tris, 5 mM sodium acetate, 1 mm ethylenediaminetetraacetic acid disodium salt (EDTA); adjusted to pH 7.8 using acetic acid] and electrophoresed in TAE buffer. After electrophoresis, the gel was soaked in a 1 μg/ml aqueous ethidium bromide solution. The gel was exposed to ultraviolet rays to visualize the electophoretic pattern of DNA.

[1] = test system: tumor necrosis factor (TNF)-α; experiment: Endotoxin shock model, serum TNF-α after LPS; type: in vivo, CDF1 mice
Procedure: (1) A model for endotoxin shock was constructed using CDF1 mice (8 weeks old, female, purchased from Japan SLC). Distilled water (control), or 10 mg/kg of diisopropionylcyclopentenone or diisobutyrylcyclopentenone was subcutaneously administered to a mouse. 20 μg of lipopolysaccharide (LPS; Sigma) was intraperitoneally administered to each mouse 30 minutes after the administration. Blood was collected from the mouse 1.5 hours after the administration with LPS. The amount of tumor necrosis factor (TNF)-α in a serum separated from the collected blood was measured using a commercially available ELISA kit (R&D). Each group consisted of 4 mice.
(2) A model for endotoxin shock was constructed by intraperitoneally administering 20 μg of LPS to a CDF1 mouse (8 weeks old, female). 30 or 100 mg/kg of dipropionylcyclopentenone or diisobutyrylcyclopentenone was orally administered 30 minutes before the administration with LPS. Blood was collected from the mouse 1.5 hours after the administration with LPS. The amount of TNF-α in a serum separated from the collected blood was measured using an ELISA kit. Each group consisted of 4 mice.

[2] = test system: delayed hypersensitivity pedal edema; experiment: Delayed hypersensitivity (DTH) with sheep erythrocytes; type: in vivo, C57BL/6 mice; conditions: once a day for 3 days
Procedure: C57BL/6 mice (male, 7 weeks old, weighing about 25 g) were purchased from Japan SLC and pre-bred for 1 week before using in experiments.
Sheep erythrocytes (Shimizu Laboratory Supplies) as raising antigens were washed three times with saline (Otsuka Pharmaceutical) and suspended in saline at a concentration of 1×10^9 cells/ml. 200 μl of the suspension was intraperitoneally injected into the mouse for sensitization with the antigen. 40 μl of similarly prepared antigen was injected to the sole of right paw 5 days after the sensitization for antigenic induction to induce pedal edema.
Dipropionylcyclopentenone dissolved in saline at a varying concentration was intraperitoneally or orally administered to 5 mice per group once a day for 3 days from the day of sensitization with the antigen. The volume of the right foot of the mouse was measured using an instrument for measuring pedal volume (Ugo Basile) 2 days after the antigenic induction and used as an index of DTH. The measurements were expressed as the rate of increase calculated according to the following equation based on the volume of the right foot of each mouse measured before the antigenic induction.
Rate of increase=(volume of right foot after antigenic induction−volume of right foot before antigenic induction)/volume of right foot before antigenic induction

[3] = test system: Candida albicans TIMM0136; experiment: Antifungal activity, growth inhibition; type: cell-based; conditions: 10 μl of solution at 100 or 500 μg/ml added to 100 μl culture; 30° C., 48 hours
Procedure: Dipropionylcyclopentenone, diisobutyrylcyclopentenone and di-2-hexenoylcyclopentenone were used to examine their antifungal activities against Candida albicans TIMM0136.
Candida albicans cells were cultured overnight in YNBG medium containing 0.67% Yeast Nitrogen Base (Difco) and 1.0% glucose (seed culture). The culture was then diluted with fresh Yeast Nitrogen Base medium to a concentration of 1×10^6 cells/ml. 100 μl of the dilution was dispensed into each well of a 96-well microtiter plate.
10 μl each of solutions of dipropionylcyclopentenone, diisobutyrylcyclopentenone or di-2-hexenoylcyclopentenone in 70% ethanol at a concentration of 100 μg/ml or 500 μg/ml, or 10 μl of 70% ethanol solution was added to the well. The plate was incubated without shaking at 30° C. for 48 hours (main culture).

[4] = test system: spleen lymphocytes stimulated with Con A; experiment: Lymphocyte blastogenesis stimulated with Con A, 3H-thymidine uptake; type: cell-based, ddY mouse; conditions: 10 μM
Procedure: (1) A spleen was taken out from ddY mouse (male, 7 weeks old, purchased from Japan SLC), finely minced and suspended in RPMI-1640 medium containing 10% FCS (HyClone) to obtain a single cell suspension. The cell suspension was seeded into a plastic Petri dish and cultured at 37° C. for 2 hours in a CO2 incubator to remove adhesive cells adhered to the dish. Non-adhesive cells were used as spleen lymphocytes. 200 μl of suspension of the spleen lymphocytes at a cell concentration of 2×10^6/ml was seeded into each well of a 96-well microtiter plate. Dipropionylcyclopentenone at a varying concentration was added to each well other than the control well. Furthermore, 5 μg of Con A (Nacalai Tesque) was added to each well. The plate was incubated at 37° C. for 1 day in a CO2 incubator. After incubation, 1 μCi of ^3H-thymidine was added to each well. After culturing for additional 1 day, the uptake into cells was measured using a liquid scintillation counter.
FIG. 7 illustrates the relationship between the concentration of dipropionylcyclopentenone and the amount of ^3H-thymidine uptake. The horizontal axis represents dipropionylcyclopentenone concentration (μM) and the vertical axis represents the ^3H-thymidine uptake (CPM). The open bar represents the ^3H-thymidine uptake without stimulation.

Mouse leukemia P-388 = experiment: Survival of mice given mouse leukemia P-388; type: in vivo, DBA/2 mouse; conditions: P-388, single dose 10 mg/kg intraperitoneal
Procedure: (1) Mouse leukemia P-388 (1.1×10^6 cells/mouse) was intraperitoneally administered to a 7-weeks old female DBA/2 mouse. Immediately after the administration, a single dose of 10 mg/kg dipropionylcyclopentenone was intraperitoneally administered. On the other hand, saline was intraperitoneally administered to a control group in a similar manner. Survival number of mice, average days of survival and prolongation rate were calculated for 2 groups each consisting of 8 mice.

T1 sequence (P11388 whole entry): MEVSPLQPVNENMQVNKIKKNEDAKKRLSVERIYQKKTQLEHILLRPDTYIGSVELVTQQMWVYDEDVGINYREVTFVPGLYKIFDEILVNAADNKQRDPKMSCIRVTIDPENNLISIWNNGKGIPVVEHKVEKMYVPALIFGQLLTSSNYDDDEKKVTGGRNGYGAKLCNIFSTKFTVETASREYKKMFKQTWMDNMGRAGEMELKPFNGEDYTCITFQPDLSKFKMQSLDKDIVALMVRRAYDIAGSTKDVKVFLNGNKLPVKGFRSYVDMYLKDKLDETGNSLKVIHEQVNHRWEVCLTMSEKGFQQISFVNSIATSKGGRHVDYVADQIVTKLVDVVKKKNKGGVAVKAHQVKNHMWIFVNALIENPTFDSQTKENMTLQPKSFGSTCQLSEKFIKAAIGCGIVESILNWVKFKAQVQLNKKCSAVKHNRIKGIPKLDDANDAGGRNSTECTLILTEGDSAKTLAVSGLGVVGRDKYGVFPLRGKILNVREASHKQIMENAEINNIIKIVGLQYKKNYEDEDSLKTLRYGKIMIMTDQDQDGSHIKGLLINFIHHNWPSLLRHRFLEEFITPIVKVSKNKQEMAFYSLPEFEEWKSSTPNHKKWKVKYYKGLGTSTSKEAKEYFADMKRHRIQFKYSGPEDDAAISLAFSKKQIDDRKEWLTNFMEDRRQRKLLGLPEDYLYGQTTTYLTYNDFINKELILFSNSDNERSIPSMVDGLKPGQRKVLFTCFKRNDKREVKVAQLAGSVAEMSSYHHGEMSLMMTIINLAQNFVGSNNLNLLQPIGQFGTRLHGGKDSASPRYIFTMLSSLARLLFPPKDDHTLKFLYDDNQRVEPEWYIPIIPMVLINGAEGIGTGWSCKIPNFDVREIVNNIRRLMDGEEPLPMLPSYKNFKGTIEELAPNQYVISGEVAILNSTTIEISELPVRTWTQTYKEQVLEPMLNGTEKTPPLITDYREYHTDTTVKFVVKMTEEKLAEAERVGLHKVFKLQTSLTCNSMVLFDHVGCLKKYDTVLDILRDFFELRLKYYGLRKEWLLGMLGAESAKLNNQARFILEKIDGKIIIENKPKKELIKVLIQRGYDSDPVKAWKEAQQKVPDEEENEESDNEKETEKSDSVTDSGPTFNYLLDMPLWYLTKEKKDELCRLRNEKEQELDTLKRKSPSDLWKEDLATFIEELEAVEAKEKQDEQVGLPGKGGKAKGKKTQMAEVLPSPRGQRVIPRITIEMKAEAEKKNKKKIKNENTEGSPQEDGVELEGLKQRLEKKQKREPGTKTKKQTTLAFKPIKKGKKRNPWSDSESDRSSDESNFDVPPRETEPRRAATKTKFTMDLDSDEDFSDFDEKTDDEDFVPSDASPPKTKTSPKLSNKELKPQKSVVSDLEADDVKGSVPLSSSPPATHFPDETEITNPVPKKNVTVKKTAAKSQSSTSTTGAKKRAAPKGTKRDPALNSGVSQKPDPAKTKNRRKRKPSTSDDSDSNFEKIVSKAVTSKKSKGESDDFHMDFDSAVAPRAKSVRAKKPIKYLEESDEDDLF

CCC(=O)OC1C=CC(=O)C1OC(=O)CC (stereo not shown)
Concentration at which change of DNA from superhelical type to relaxed type was partially or completely inhibited (topoisomerase II): ≥ 0.1 µM
TNF-α production compared with control group (statement) ([1]; 10 mg/kg subcutaneous): significantly suppressed
Amount of TNF mean ± SE ([1]; 10 mg/kg subcutaneous 30 minutes before LPS, serum 1.5 hours after LPS): 4.61 ± 0.57 ng/mL
TNF mean ± SE ([1]; 30 mg/kg oral 30 minutes before LPS, serum 1.5 hours after LPS): 2.95 ± 0.14 ng/mL
TNF mean ± SE ([1]; 100 mg/kg oral 30 minutes before LPS, serum 1.5 hours after LPS): 1.26 ± 0.15 ng/mL
TNF production compared with control group (statement) ([1]; oral 30 or 100 mg/kg): suppressed the TNF production in a dose-dependent manner
Suppression of edema in foot, DTH (FIG. 6) ([2]; 1 mg/kg intraperitoneal): Tendency to suppress the edema in the foot
Suppression of edema in foot, DTH (FIG. 6) ([2]; 10 mg/kg intraperitoneal): significant suppression
Suppression of edema in foot, DTH (FIG. 6) ([2]; 30 mg/kg oral): significant suppression
Minimum growth inhibitory concentration [3]: 500 µg/mL
Inhibition of proliferation of mouse lymphocytes stimulated with Con A (FIG. 7) [4]: almost completely inhibited
Average days of survival (Mouse leukemia P-388): 13.9 days
Prolongation rate (Mouse leukemia P-388): 137.0%
